Source: ChEMBL document CHEMBL1614629, “Extrapolation of human pharmacokinetic parameters from rat, dog, and monkey data: Molecular properties associated with extrapolative success or failure” (J Pharm Sci, 2005)

What was measured:
[1] = Clearance in rat after iv administration; format: ADME, organism-based; conditions: in vivo
[2] = Volume of distribution at steady state in rat after iv administration; format: ADME, organism-based; conditions: in vivo
[3] = Clearance in dog after iv administration; format: ADME, organism-based, Canis lupus familiaris; conditions: in vivo
[4] = Volume of distribution at steady state in dog after iv administration; format: ADME, organism-based, Canis lupus familiaris; conditions: in vivo, read-out: Vdss
[5] = Clearance in monkey after iv administration; format: ADME, organism-based; conditions: macaca, in vivo
[6] = Volume of distribution at steady state in monkey after iv administration; format: ADME, organism-based; conditions: macaca, in vivo, read-out: Vdss
[7] = Clearance in human after iv administration; format: ADME, organism-based; conditions: in vivo
[8] = Volume of distribution at steady state in human after iv administration; format: ADME, organism-based; conditions: in vivo, read-out: Vdss

Row | SMILES | clearance [1] [mL/min/kg] | Vdss [2] [L/kg] | clearance [3] [mL/min/kg] | Vd [4] [L/kg] | clearance [5] [mL/min/kg] | Vd [6] [L/kg] | clearance [7] [mL/min/kg] | Vd [8] [L/kg]
1 | CC[C@]1(O)C[C@H]2CN(CCc3c([nH]c4ccccc34)[C@@](C(=O)OC)(c3cc4c(cc3OC)N(C=O)[C@H]3[C@@](O)(C(=O)OC)[C@H](OC(C)=O)[C@]5(CC)C=CCN6CC[C@]43[C@@H]65)C2)C1 [VINCRISTINE] | 2 | 0.41 | 9.8 | 3.1 | 4.8 | 1.3 | 1.8 | 8
2 | CO/N=C(\C(=O)N[C@@H]1C(=O)N2C(C(=O)O)=CCS[C@H]12)c1csc(N)n1 [CEFTIZOXIME] | 19 | 0.18 | 3.3 | 0.1 | 5.9 | 0.12 | 1.8 | 0.23
3 | CN(C)C(=O)CCSC(SCCC(=O)O)c1cccc(/C=C/c2ccc3ccc(Cl)cc3n2)c1 (stereo not drawn) [MK-571] | 37 | 0.59 | 4 | 0.23 | 1.9 | 0.32 | 0.92 | 0.09
4 | CO/N=C(\C(=O)N[C@@H]1C(=O)N2C(C(=O)[O-])=C(C[n+]3ccn4ncccc43)CS[C@H]12)c1nsc(N)n1 [CEFOZOPRAN] | 9.4 | 0.2 | 3 | 0.21 | 1.9 | 0.2 | 1.5 | 0.27
5 | c1ccc(C2(N3CCCCC3)CCCCC2)cc1 [PHENCYCLIDINE] | 122 | 23 | 50 | 17 | 37 | 7.3 | 4.9 | 6.2
6 | CN1CCN(c2c(F)cc3c(=O)c(C(=O)O)cn(CCF)c3c2F)CC1 [FLEROXACIN] | 5.7 | 1.3 | 1.6 | 1.3 | 4 | 1.2 | 2.4 | 1.5
7 | CCCC(CCC)C(=O)O [VALPROIC ACID] | 4.2 | 0.66 | 3 | 0.31 | 4 | 0.15 | 0.11 | 0.15
8 | C#C[C@]1(O)CC[C@H]2[C@@H]3CCc4cc(O)ccc4[C@H]3CC[C@@]21C [ETHINYL ESTRADIOL] | 64 | 73 | 25 | 17 | 17 | 6 | 5 | 18
9 | N=C(N)c1ccc(C(=O)N[C@@H](Cc2ccc(O)cc2)C(=O)N2CCC(OCC(=O)O)CC2)cc1 [LAMIFIBAN] |  | 0.24 |  | 0.75 |  | 0.29 |  | 0.29
10 | CC(C)NCC(O)COc1cccc2ccccc12 (stereo not drawn) [PROPRANOLOL] |  | 5.3 |  | 1.7 | 14 | 0.6 | 15 | 3.6
11 | CC(=O)CC(c1ccccc1)c1c(O)c2ccccc2oc1=O (stereo not drawn) [WARFARIN] | 0.36 | 0.22 | 0.3 | 0.28 | 0.13 | 0.11 | 0.04 | 0.11
12 | Nc1nc(/C(=N/O)C(=O)N[C@@H]2C(=O)N3C(C(=O)O)=C(/C=C4\CCN(CC(F)(F)F)C4=O)CS[C@H]23)cs1 [RO 25-6833] | 0.95 | 0.16 | 2.7 | 0.24 | 0.78 | 0.12 | 0.38 | 0.12
13 | Cc1cn([C@H]2C[C@H](N=[N+]=[N-])[C@@H](CO)O2)c(=O)[nH]c1=O [ZIDOVUDINE] | 46 |  | 14 | 1 | 15 | 1 | 24 | 
14 | O=P(O)(O)C(Sc1ccc(Cl)cc1)P(=O)(O)O [TILUDRONIC ACID] | 3.3 | 15 | 0.5 | 3 | 0.83 | 7 | 0.3 | 1
15 | NC(=O)c1csc([C@@H]2O[C@H](CO)[C@@H](O)[C@H]2O)n1 [TIAZOFURIN] |  | 2.5 |  | 0.9 |  | 2 |  | 0.9
16 | C[C@@H](O)[C@H]1C(=O)N2C(C(=O)O)=C(COC(N)=O)S[C@H]12 | 16 | 0.05 | 7.7 | 0.23 | 4.7 | 0.15 | 7.2 | 0.25
17 | CC#CCC(C)[C@H](O)/C=C/[C@@H]1[C@H]2C/C(=C/CCCC(=O)O)C[C@H]2C[C@H]1O (stereo partly drawn) [ILOPROST] | 32 | 0.8 | 67 | 0.9 | 58 | 0.9 | 17 | 0.4
18 | CC[C@H]1OC(=O)[C@H](C)[C@@H](O[C@H]2C[C@@](C)(OC)[C@@H](O)[C@H](C)O2)[C@H](C)[C@@H](O[C@@H]2O[C@H](C)C[C@H](N(C)C)[C@H]2O)[C@](C)(O)C[C@@H](C)C(=O)[C@H](C)[C@@H](O)[C@]1(C)O [ERYTHROMYCIN] | 73 | 9.3 | 21 | 2.7 | 14 | 0.93 | 7 | 0.89

Row | SMILES | clearance [1] [mL/min/kg] | Vdss [2] [L/kg] | clearance [3] [mL/min/kg] | Vd [4] [L/kg] | clearance [5] [mL/min/kg] | Vd [6] [L/kg] | clearance [7] [mL/min/kg] | Vd [8] [L/kg]
19 | C[C@@H](O)[C@H]1C(=O)N2C(C(=O)O)=C(S[C@@H]3CN[C@H](C(=O)N(C)C)C3)[C@H](C)[C@H]12 [MEROPENEM] | 47 | 0.3 | 4 | 0.25 | 7 | 0.3 | 4 | 0.3
20 | Cc1cccnc1NS(=O)(=O)c1ccc(C#Cc2ccc(O)c(C(=O)O)c2)cc1 [SUSALIMOD] | 62 | 1.2 | 20 | 0.19 | 2 | 0.08 | 0.09 | 0.12
21 | CC1(C)O[C@@H]2C[C@H]3[C@@H]4C[C@H](F)C5=CC(=O)C=C[C@]5(C)[C@H]4[C@@H](O)C[C@]3(C)[C@]2(C(=O)CO)O1 [FLUNISOLIDE] | 8.8 | 3 | 12.9 | 3.7 | 19 | 4 | 12 | 
22 | Cn1c(=O)c2c(ncn2C)n(C)c1=O [CAFFEINE] |  | 0.92 | 2.1 | 0.76 | 3.1 | 0.83 | 2 | 0.73
23 | C[C@]12C=CC(=O)C=C1CC[C@@H]1[C@@H]2C(=O)C[C@@]2(C)[C@H]1CC[C@]2(O)C(=O)CO [PREDNISONE] | 163 | 1.4 | 27 | 2.1 | 13 | 1.6 | 3.6 | 
24 | CC(C)(C)S(=O)(=O)C[C@@H](Cc1ccccc1)C(=O)N[C@@H](Cc1cnc[nH]1)C(=O)N[C@@H](CC1CCCCC1)[C@@H](O)[C@@H](O)C1CC1 |  | 4.4 | 25 | 1.5 | 20 | 1.7 | 10 | 0.84
25 | CN(Cc1cnc2nc(N)nc(N)c2n1)c1ccc(C(=O)N[C@@H](CCC(=O)O)C(=O)O)cc1 [METHOTREXATE] | 12 | 0.4 | 1.2 |  | 8 | 1.2 | 2.5 | 0.67
26 | CN1CCC[C@H]1c1cccnc1 [NICOTINE] | 66 | 4.7 | 42 | 3.3 | 14 | 1.5 | 19 | 
27 | COCCc1ccc(OCC(O)CNC(C)C)cc1 (stereo not drawn) [METOPROLOL] | 185 | 7 | 23 | 4.5 | 30 | 3 | 15 | 
28 | CO[C@@]1(NC(=O)CSC(F)F)C(=O)N2C(C(=O)O)=C(CSc3nnnn3CCO)CO[C@@H]21 [FLOMOXEF] |  | 0.23 |  | 0.32 |  | 0.3 |  | 0.52
29 | CN1C(C(=O)Nc2nccs2)=C(O)c2ccccc2S1(=O)=O [SUDOXICAM] |  | 0.2 |  | 0.2 |  | 0.2 |  | 0.2
30 | COC(=O)[C@H]1[C@@H](OC(=O)c2ccccc2)C[C@@H]2CC[C@H]1N2C [COCAINE] | 260 | 16 | 102 | 3.8 | 64 | 7.4 | 32 | 
31 | O=C(c1ccccc1)c1ccc2n1CCC2C(=O)O (stereo not drawn) [KETOROLAC] | 3.6 | 0.56 | 1.3 | 0.33 | 0.6 | 0.09 |  | 
32 | Cn1cc(/C=C2/C(=O)N3C(C(=O)O)=CS[C@H]23)nn1 |  | 1.3 |  | 0.32 |  | 0.27 |  | 0.28
33 | CC(C)n1c(/C=C/C(O)CC(O)CC(=O)O)c(-c2ccc(F)cc2)c2ccccc21 (stereo not drawn) [FLUVASTATIN] |  | 1 |  | 0.7 |  | 3.7 |  | 0.42
34 | COC(=O)C1=C(C)NC(C)=C(C(=O)OCCN(C)Cc2ccccc2)C1c1cccc([N+](=O)[O-])c1 (stereo not drawn) [NICARDIPINE] |  | 1.3 |  | 1.3 |  | 1.9 |  | 0.64
35 | N=C(N)N1CCC[C@@H](CNC(=O)C[C@H](NS(=O)(=O)c2ccc3ccccc3c2)C(=O)N(CC(=O)O)C2CC2)C1 [NAPSAGATRAN ANHYDROUS] |  | 0.62 |  | 0.69 |  | 0.26 |  | 0.32
36 | C[C@@H](O)[C@H]1C(=O)N2C(C(=O)O)=C(SCCOC(N)=O)S[C@H]12 [Sch-34343] |  | 0.17 |  | 0.22 |  | 0.17 |  | 0.34
